Experimental data: PubChem BioAssay (NCI)
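The compound was tested at five concentrations on cells cultured in 96-well plates, with a 48-hour exposure period. GI50 is the concentration that inhibits growth by half. TGI: total growth inhibition.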

What was measured:
Test in all cases: DTP human tumour cell line panel, 48 h
MDA-MB-231 breast = tested on: MDA-MB-231 breast
HOP-62 NSCLC = tested on: HOP-62 NSCLC
NCI-H23 lung = tested on: NCI-H23 lung
UACC-257 melanoma = tested on: UACC-257 melanoma
MCF7 breast = tested on: MCF7 breast
MOLT-4 leukemia = tested on: MOLT-4 leukemia
SN12C renal = tested on: SN12C renal
HCC-2998 colon = tested on: HCC-2998 colon
T-47D breast = tested on: T-47D breast

SMILES	TGI (MDA-MB-231 breast) [µM]	TGI (HOP-62 NSCLC) [µM]	TGI (NCI-H23 lung) [µM]	TGI (UACC-257 melanoma) [µM]	TGI (MCF7 breast) [µM]	TGI (MOLT-4 leukemia) [µM]	TGI (SN12C renal) [µM]	TGI (HCC-2998 colon) [µM]	TGI (T-47D breast) [µM]	GI50 (MDA-MB-231 breast) [nM]	GI50 (HOP-62 NSCLC) [µM]	GI50 (NCI-H23 lung) [µM]	GI50 (UACC-257 melanoma) [µM]	GI50 (MCF7 breast) [nM]	GI50 (MOLT-4 leukemia) [nM]	GI50 (SN12C renal) [µM]	GI50 (HCC-2998 colon) [µM]	GI50 (T-47D breast) [nM]
O=P(O)(O)CN1CCNCCN(CP(=O)(O)O)CCNCC1	> 100	> 100	> 100	> 100	> 100	> 100	> 100	> 100	> 100	–	–	–	–	–	–	–	–	–
COc1cc(-n2cc(-c3cc(O)c(C/C=C(\C)CCC=C(C)C)c(O)c3)nn2)cc2c1O[C@]1(C)CC[C@@H](O)C(C)(C)[C@H]1C2	3.24	12.7	31.3	48.4	19.2	1.36	> 41.4	19	47.2	275	0.564	3.26	5.09	338	67.1	3.86	2.45	1340
O=c1oc2ccc(Cl)cc2cc1-c1cn2ccsc2n1	> 100	> 100	> 100	> 100	65.4	> 100	> 100	> 100	> 100	–	–	–	–	–	–	–	–	–
Nc1ncc(/C=N/O)c(NCC2(CO)CC(CCc3ccccc3)C2)n1 (stereo unspecified)	21.8	24.8	–	24.4	22.2	23	33	30.4	17.2	–	–	–	–	–	–	–	–	–
CO[P@]1(=O)O[C@@H](c2ccccc2)[C@H](O)[C@@]1(O)c1ccccc1	> 100	–	> 100	> 100	> 100	> 100	> 100	–	> 100	–	–	–	–	–	–	–	–	–
O=CNNC(=O)Nc1ccc(Cl)cc1	> 100	> 100	> 100	> 100	> 100	> 100	> 100	> 100	> 100	–	–	–	–	–	–	–	–	–
COC(=O)/C=C/c1ccc2c(c1)CC1(Cc3ccccc3C1)C2	> 100	> 100	> 100	> 100	> 100	> 100	> 100	> 100	> 100	–	–	–	–	–	–	–	–	–
Cc1cc(S(=O)(=O)O)c(NC(=O)c2oc3cc(O)ccc3c(=O)c2C)cc1Cl	> 100	> 100	> 100	> 100	> 100	> 100	> 100	> 100	> 100	–	–	–	–	–	–	–	–	–
Cc1cn([C@H]2[C@@H](CO)C[C@H]2O)c(=O)[nH]c1=O	> 100	> 100	> 100	> 100	> 100	> 100	> 100	> 100	–	–	–	–	–	–	–	–	–	–
O=S1(=O)OCCOS(=O)(=O)C1Cc1nc2ccccc2[nH]1	> 100	> 100	> 100	> 100	> 100	92.4	> 100	> 100	–	–	–	–	–	–	–	–	–	–
CC1(C)CCC2(C(=O)OC3OC(CO)C(O)C(O)C3O)CCC3(CO)C(=CCC4C5(C)CC(O)C(O)C(C)(C(=O)OC6OC(CO)C(O)C(O)C6O)C5CCC43C)C2C1 (stereo unspecified)	> 100	> 100	> 100	> 100	> 100	> 100	> 100	> 100	> 100	–	–	–	–	–	–	–	–	–
O=C1CSC2(CC(/C=C/c3ccccc3Br)=NN2c2cccc(S(=O)(=O)O)c2)N1c1nc2ccccc2s1 (stereo unspecified)	> 100	–	> 100	> 100	> 100	> 100	> 100	> 100	> 100	–	–	–	–	–	–	–	–	–
C=C1CC(Cn2cc(Br)c(=O)[nH]c2=O)(c2ccc(-c3ccccc3)cc2)OC1=O (stereo unspecified)	9	19.3	3.4	2.53	1.75	–	4.67	3.21	4.87	–	–	–	–	–	–	–	–	–
Oc1[nH]c2ccccc2c1/C=c1/cc2c(c(-c3ccc(C(F)(F)F)cc3)n1)=Nc1ccccc1-2	13.9	27.3	31.8	42.3	5.14	13.2	> 100	24.4	13.9	1890	12.3	10.9	13.6	1530	3320	27.9	9.32	3050
O=C(c1ccco1)C1CC(c2ccc3ccccc3c2O)=NN1c1ccc([N+](=O)[O-])cc1[N+](=O)[O-] (stereo unspecified)	68.7	> 100	> 100	> 100	> 100	11.4	> 100	> 100	> 100	–	–	–	–	–	–	–	–	–
c1ccc([P+](c2ccccc2)(c2ccccc2)c2ccc([P+](c3ccccc3)(c3ccccc3)c3ccccc3)cc2)cc1	> 100	> 100	> 100	> 100	> 100	> 100	> 100	–	> 100	–	–	–	–	–	–	–	–	–
Cc1ccc(S(=O)(=O)N/N=C2\C3CC4CC(C3)C2C4)cc1 (stereo unspecified)	> 100	> 100	> 100	> 100	> 100	> 100	> 100	> 100	> 100	–	–	–	–	–	–	–	–	–
COc1ccc(C=Nc2ccc(-c3nc4ccccc4[nH]3)cc2)cc1OC	> 100	> 100	> 100	> 100	> 100	> 100	> 100	–	> 100	–	–	–	–	–	–	–	–	–
COc1ccc(C(=O)c2ccc(-n3cc(/C=C/[N+](=O)[O-])c4ccccc43)cc2)cc1	43.9	35.4	52.4	31.3	> 34.2	> 100	42.7	48.9	6.41	–	–	–	–	–	–	–	–	–
CCOC(=O)c1nc2ccccc2nc1NCc1ccc(Cl)cc1Cl	> 100	> 100	> 100	> 100	> 100	> 100	–	–	> 100	–	–	–	–	–	–	–	–	–
O=C1OI(C#Cc2ccccc2)c2ccccc21	> 55.3	22.6	10.8	25.2	14.9	5.34	22.6	21.4	10.8	–	–	–	–	–	–	–	–	–
